Test results as given in ChEMBL document CHEMBL4418495, “Entpd5 inhibitors” (2012).
The source made the active and inactive calls.

Tests used:
[1] = target: T1, Nucleoside diphosphate phosphatase ENTPD5 (Homo sapiens) (UniProt O75356); experiment: Inhibition of human recombinant ENTPD5 expressed in insect cells assessed as reduction in UDP hydrolysis at 1 uM incubated for 1 hr in presence of UMP, GTP and ATP by Escherichia coli UMP kinase pyrH catalyzed UMP phosphorylation coupled luciferase assay
T1 sequence (whole entry): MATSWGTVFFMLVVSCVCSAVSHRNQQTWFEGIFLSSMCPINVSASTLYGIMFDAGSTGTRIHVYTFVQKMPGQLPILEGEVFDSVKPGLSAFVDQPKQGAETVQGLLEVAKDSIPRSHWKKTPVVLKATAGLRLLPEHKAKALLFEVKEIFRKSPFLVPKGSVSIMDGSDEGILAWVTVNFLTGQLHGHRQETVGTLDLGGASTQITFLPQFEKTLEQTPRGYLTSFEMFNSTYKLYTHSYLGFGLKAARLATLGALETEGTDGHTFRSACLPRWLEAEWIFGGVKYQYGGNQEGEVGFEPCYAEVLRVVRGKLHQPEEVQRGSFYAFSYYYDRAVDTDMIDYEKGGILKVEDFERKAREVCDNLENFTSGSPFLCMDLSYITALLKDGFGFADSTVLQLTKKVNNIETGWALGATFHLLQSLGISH

[2] = target: T2, Uridylate kinase (Escherichia coli (strain K12)) (UniProt P0A7E9); experiment: Inhibition of recombinant Escherichia coli UMP kinase pyrH catalyzed UMP phosphorylation in presence of GTP and ATP incubated for 1 hr by luminescence based assay
T2 sequence (whole entry): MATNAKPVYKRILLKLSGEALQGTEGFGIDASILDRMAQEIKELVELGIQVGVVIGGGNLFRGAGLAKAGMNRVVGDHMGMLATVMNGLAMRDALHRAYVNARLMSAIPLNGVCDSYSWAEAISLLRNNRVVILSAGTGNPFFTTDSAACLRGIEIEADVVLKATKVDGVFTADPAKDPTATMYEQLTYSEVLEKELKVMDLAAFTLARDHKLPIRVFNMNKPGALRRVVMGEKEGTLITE

[3] = target: T3, Ectonucleoside triphosphate diphosphohydrolase 5 (Mus musculus) (UniProt Q9WUZ9); experiment: Inhibition of ENTPD5 in PTEN knockout mouse MEF cells assessed as induction of ER stress by measuring increase in GRP78/BiP expression incubated for 24 hrs by Western blotting analysis; assay type: cell-based
T3 sequence (whole entry): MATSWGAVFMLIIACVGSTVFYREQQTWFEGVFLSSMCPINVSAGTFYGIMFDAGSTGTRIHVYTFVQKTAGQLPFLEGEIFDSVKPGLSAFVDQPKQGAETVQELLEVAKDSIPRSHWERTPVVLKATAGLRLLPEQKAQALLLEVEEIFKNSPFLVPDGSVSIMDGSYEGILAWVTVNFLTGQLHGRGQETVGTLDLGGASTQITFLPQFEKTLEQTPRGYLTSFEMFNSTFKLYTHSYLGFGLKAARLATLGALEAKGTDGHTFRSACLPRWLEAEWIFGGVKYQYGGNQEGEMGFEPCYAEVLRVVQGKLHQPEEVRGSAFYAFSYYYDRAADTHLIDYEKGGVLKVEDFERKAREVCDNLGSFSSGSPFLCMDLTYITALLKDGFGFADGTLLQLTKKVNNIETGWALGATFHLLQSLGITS

[4] = target: T3, Ectonucleoside triphosphate diphosphohydrolase 5 (Mus musculus); experiment: Inhibition of ENTPD5 in PTEN knockout mouse MEF cells assessed as induction of ER stress by measuring increase in EGF receptor degradation incubated for 24 hrs by Western blotting analysis; assay type: cell-based
[5] = target: T3, Ectonucleoside triphosphate diphosphohydrolase 5 (Mus musculus); experiment: Inhibition of ENTPD5 in PTEN knockout mouse MEF cells assessed as induction of ER stress by measuring increase in GRP78/BiP expression at 30 uM incubated for 24 hrs by Western blotting analysis; assay type: cell-based
LNCaP [6] = experiment: Antitumor activity against human LNCAP cells xenografted in mouse assessed as reduction in cells left in matrigels at 1 to 100 mg/kg, ip dosed every other day and measured after 6 weeks by hematoxylin and eosin staining based microscopy; assay type: functional, organism-based
LNCaP [7] = experiment: Antitumor activity against human LNCAP cells xenografted in mouse assessed as induction of tumor shrinkage at 1 to 100 mg/kg, ip dosed every other day and measured after 6 weeks by microscopy; assay type: functional, organism-based
[8] = target: T1, Nucleoside diphosphate phosphatase ENTPD5 (Homo sapiens); experiment: Inhibition of human recombinant ENTPD5 expressed in insect cells assessed as reduction in UDP hydrolysis up to 10 uM incubated for 1 hr in presence of UMP, GTP and ATP by Escherichia coli UMP kinase pyrH catalyzed UMP phosphorylation coupled luciferase assay
[9] = target: T1, Nucleoside diphosphate phosphatase ENTPD5 (Homo sapiens); experiment: Inhibition of human recombinant ENTPD5 expressed in insect cells assessed as reduction in reduction in UDP hydrolysis by measuring inorganic phosphate release incubated for 1 hr by malachite green based assay
MEF = experiment: Toxicity in PTEN knockout mouse MEF cells assessed as reduction in cell viability at 30 uM incubated for 24 hrs; assay type: cell-based
[10] = target: T4, Nucleoside diphosphate phosphatase ENTPD5 (Homo sapiens, UniProt O75356); experiment: Inhibition of human recombinant ENTPD5 expressed in insect cells assessed as reduction in UDP hydrolysis incubated for 1 hr in presence of UMP, GTP and ATP by Escherichia coli UMP kinase pyrH catalyzed UMP phosphorylation coupled luciferase assay
T4 sequence (O75356 whole entry): T1 sequence (whole entry)

Row | inhibition [1] | inhibition [2] | inhibition [3] | inhibition [4] | inhibition [5] | inhibition [8] | inhibition [9] | IC50 [10] | Structure (SMILES) | Activity (LNCaP [6]) | Activity (LNCaP [7]) | Activity (MEF)
1 | Active | inactive | Dose-dependent effect | Dose-dependent effect | Active | Dose-dependent effect | Active | – | COc1ccc(-n2cccc2/C=C2\C(=O)NC(=S)N(c3cccc(Br)c3)C2=O)cc1 | Active | Active | –
2 | Active | inactive | Dose-dependent effect | Dose-dependent effect | Active | Dose-dependent effect | Active | – | CCOc1ccc(N2C(=O)/C(=C/c3cccn3-c3ccc(Br)cc3)C(=O)NC2=S)c(F)c1 | Active | Active | –
3 | – | – | – | – | – | – | – | 15 to 20 µM | C[C@H]1CC[C@H]2C(C)(C)CCC[C@]23Oc2ccc(O)cc2C[C@]13C [AUREOL] | – | – | Toxic
